This note sets out measurements from US12605517B1 (Belhaven BioPharma Inc., priority 2024, dated 2026).

The structures appear in SMILES notation.

Data set [1] in a line: Human Phase 1 clinical study, plasma epinephrine pharmacokinetics and bioavailability. In kind it is in vivo. The settings on record: for Tmax: read-out: median Tmax (converted).
Method: Twelve human subjects participated in the open-label, single sequence crossover study. […] Nor did the subject participate in Treatment D.
The dry powder formulation was administered via intranasal instillation once using a nasal device (APTAR). The IM solution and materials were supplied by the study site and prepared according to the local procedures. The study drug was administered at approximately the same time on each treatment day. There was a washout period of 20 days between the nasal doses administered as treatment A and treatment D. The subjects were admitted to the clinical site the day before each treatment administration and remained on site until at least 8 hours post-dose, or when applicable, until 24 hours post-dose of the specific treatment period. The study drug was administered after at least a 10 hour fast. A standardized meal was provided approximately 4 hours after dosing.
Blood samples were collected prior to dosing at 60, 30, and 0 minutes before dosing, and after dosing at 2, 5, 7, 10, 15, 20, 25, 30, 45, 60, 90, 120, 180, 240, and 360 minutes. […] The calibration curve range of the bioanalytical method was from 10 to 10000 pg/mL. Recovery was >75% and freeze-thaw, short-term and long-term stability (584 days) were all shown to be acceptable; the analyte was stable under all conditions tested.
Noncompartmental analysis was performed on individual human subject plasma concentration-time data using nominal doses and actual blood sampling times. […] Baseline correction was accomplished using the average of the measured concentrations at nominal times of −60, −30, and 0 minutes before dosing.
Pharmacokinetic analyses were performed using the standard PK analysis software package PHOENIX® WinNonlin version 8.4.
The PK population consists of all human subjects who provided sufficient PK samples for a given treatment to allow for adequate determination of PK parameters of interest.
Data set [2] can be described thus: Study 101, plasma epinephrine pharmacokinetics. In kind it is in vivo. The settings on record: human, im. How it is done: Each patient was provided each treatment of the trial with 72-hour washout periods between each treatment, beginning with a 3.5 mg intranasal dose, followed by a 0.3 mg intramuscular dose, followed by a 0.5 mg intramuscular dose, and concluding with a 5.5 mg intranasal dose, with a safety follow-up performed 3 to 5 days after the final dose was administered. The primary endpoints of the study were pharmacokinetic measurements and assessments of comparative bioavailability, while the secondary endpoints were safety concerns and pharmacodynamic assessments.

One may read the Cmax as the maximum level reached in the sampled fluid or tissue. What is called Tmax is the time at which the peak concentration occurs. For `CNC[C@H](O)c1ccc(O)c(O)c1` [Epinephrine IM, epinephrine], the Cmax in data set [1] (0.3 mg IM, read-out: mean baseline-corrected Cmax) came out at 0.184 ng/mL. For the same compound, the Tmax was 48 min in data set [1] (0.3 mg IM); 48 min in data set [1] (0.5 mg IM); 41.4 min in data set [2] (0.3 mg, 0.3 mg IM, read-out: Tmax (Mean) (converted)); 48 min in data set [2] (0.3 mg, 0.3 mg IM, read-out: Tmax (Median) (converted)); 40.9 min in data set [2] (0.5 mg, 0.5 mg IM, read-out: Tmax (Mean) (converted)); 48 min in data set [2] (0.5 mg, 0.5 mg IM, read-out: Tmax (Median) (converted)).
